Test systems include A498; ACHN; CAKI-1; CCRF-CEM; COLO 205; HCC 2998; HT-29; IGROV-1; MDA-MB-231; Malme-3M; NCI-H522; OVCAR-3; SN12C; SW-620; T47D; UACC-62; HOP-62; RPMI-8226.
Holding throughout (test): growth of human tumour cells (NCI), 48 h

Structures are written as SMILES.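 Briefly, cells in 96-well plates were exposed to five compound concentrations for 48 h, and endpoints were estimated by linear interpolation. Here, GI50 denotes the concentration required for 50% inhibition of growth.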 Calls of active or inactive are those of the source. Cut-off read from the data, not from the text of the source: active = GI50 up to about 1.1 µM and inactive = higher.

These results are taken from ChEMBL document CHEMBL1201862, “PubChem BioAssay data set” (2004).

On to `O=C1c2c(Br)sc(Br)c2C(NC(=O)C(F)(F)F)C1O` (configuration not stated), for which the GI50 in the assay on A498 was > 100 µM (inactive); with ACHN it was 29.5 µM (inactive); with CAKI-1, 17.5 µM (inactive); in the assay on CCRF-CEM, 26.3 µM (inactive); in the assay on COLO 205, 16.8 µM (inactive); with HCC 2998, 18.2 µM (inactive). The GI50 was 24.7 µM (inactive) in the assay on HT-29; 20.2 µM (inactive) in the assay with IGROV-1; 19.2 µM (inactive) with MDA-MB-231; 20.2 µM (inactive) in the assay on Malme-3M; 13.3 µM (inactive) in the assay with NCI-H522; 19.3 µM (inactive) in the assay with OVCAR-3. In addition, the GI50 was 18.7 µM (inactive) with SN12C, 17.8 µM (inactive) in the assay on SW-620, 24.4 µM (inactive) in the assay on T47D and 20.3 µM (inactive) with UACC-62.

For `C=Cn1c([N+](=O)[O-])cnc1/C=C/c1ccc(C(=O)OCCN2CCOCC2)cc1`, the GI50 is 75.5 µM (inactive) in the assay with A498; > 100 µM (inactive) with ACHN; > 100 µM (inactive) in the assay with CAKI-1; > 100 µM (inactive) with CCRF-CEM; > 100 µM (inactive) with COLO 205; > 100 µM (inactive) in the assay with HOP-62. Besides, the GI50 in the assay on HT-29 was > 100 µM (inactive); in the assay on IGROV-1, > 100 µM (inactive); in the assay with MDA-MB-231, > 100 µM (inactive); in the assay with Malme-3M, 61 µM (inactive); with NCI-H522, > 100 µM (inactive); in the assay with OVCAR-3, > 100 µM (inactive). In addition, the GI50 is 12 µM (inactive) in the assay with RPMI-8226; > 100 µM (inactive) with SN12C; > 100 µM (inactive) in the assay with SW-620; > 100 µM (inactive) in the assay on T47D; > 100 µM (inactive) in the assay with UACC-62.

Regarding `C=C1C(=O)O[C@@H]2[C@H]1C[C@@H](O)[C@H](C)[C@@](O)(C(=O)/C=C/C)[C@H]2OC(=O)C(C)CC` (some centres not stated), the GI50 in the assay with A498 is 18.7 µM (inactive); in the assay on ACHN, 2.99 µM (inactive); in the assay with CAKI-1, 1.26 µM (inactive); with CCRF-CEM it was 0.0428 µM (active); in the assay on COLO 205, 1.75 µM (inactive); in the assay on HCC 2998 it was 14.5 µM (inactive). The GI50 with HOP-62 was 21 µM (inactive); in the assay on HT-29, 2.24 µM (inactive); in the assay with IGROV-1 it was 2.58 µM (inactive); with MDA-MB-231, 5.79 µM (inactive); in the assay on Malme-3M, 2 µM (inactive); in the assay with NCI-H522, 1.26 µM (inactive). Besides, the GI50 in the assay with OVCAR-3 is 3.26 µM (inactive); in the assay with RPMI-8226 it was 1.72 µM (inactive); with SN12C, 2.64 µM (inactive); in the assay on SW-620, 2.42 µM (inactive); with T47D, 5.7 µM (inactive); in the assay on UACC-62, 15.5 µM (inactive).

For the compound `CCOC(=O)c1c(-c2ccccc2)c(OC)cn1C`, the GI50 in the assay on A498, in the assay with ACHN, with CAKI-1, in the assay on CCRF-CEM, with COLO 205 and in the assay with HCC 2998 was > 10 µM (inactive) in each case. Moreover, the GI50 in the assay on HOP-62, with HT-29, with IGROV-1, with MDA-MB-231, in the assay on Malme-3M and in the assay on NCI-H522 was > 10 µM (inactive) throughout. In addition, the GI50 with OVCAR-3, in the assay on RPMI-8226, in the assay with SN12C, in the assay with SW-620, in the assay with T47D and with UACC-62 was > 10 µM (inactive) each time.

In the case of `COc1ccc(-c2nnc3nc4ccccc4n3c2O)cc1`, the GI50 in the assay on A498, in the assay with ACHN, in the assay with CAKI-1, in the assay on CCRF-CEM, in the assay on COLO 205 and with HCC 2998 was > 100 µM (inactive) in each case. Moreover, the GI50 in the assay with HOP-62 was > 100 µM (inactive); in the assay on HT-29 it was > 100 µM (inactive); with IGROV-1, > 100 µM (inactive); in the assay on MDA-MB-231, 31 µM (inactive); in the assay with Malme-3M it was > 100 µM (inactive); in the assay with NCI-H522, > 100 µM (inactive). In addition, the GI50 in the assay with SN12C, in the assay on SW-620 and in the assay on T47D was > 100 µM (inactive) each time.

With `c1ccc(CSC(SCc2ccccc2)c2ccc3c(c2)OCO3)cc1`, the GI50 with A498, with ACHN, in the assay on CAKI-1, in the assay with CCRF-CEM, with COLO 205 and in the assay with HCC 2998 was > 10 µM (inactive) each time. Further, the GI50 in the assay on HOP-62, in the assay on HT-29, with IGROV-1, with MDA-MB-231, in the assay with Malme-3M and in the assay on NCI-H522 was > 10 µM (inactive) each time. For the same compound, the GI50 with OVCAR-3, in the assay with RPMI-8226, in the assay on SN12C, in the assay on SW-620, with T47D and with UACC-62 was > 10 µM (inactive) in each case.

Turning to `CC(=O)C(CN1C(=O)c2ccccc2C1=O)C(C)=O`, the GI50 in the assay on A498, in the assay with ACHN, in the assay on CAKI-1, with COLO 205, in the assay with HCC 2998 and in the assay with HOP-62 was > 100 µM (inactive) each time. Further, the GI50 with HT-29, in the assay with IGROV-1, in the assay on MDA-MB-231, in the assay on NCI-H522, in the assay with OVCAR-3 and in the assay on SN12C was > 100 µM (inactive) throughout. The GI50 in the assay with SW-620, in the assay on T47D and in the assay on UACC-62 was > 100 µM (inactive) throughout.

With `CC(C)(C)OC(=O)NC(CSCc1ccc(C(=O)c2ccccc2)cc1)C(=O)N1CCN(CCCCN2c3ccccc3Sc3cc(N=[N+]=[N-])ccc32)CC1` (configuration not stated), the GI50 in the assay on A498, in the assay on ACHN, with CAKI-1, in the assay on CCRF-CEM, with COLO 205 and in the assay with HCC 2998 was > 100 µM (inactive) each time. The GI50 in the assay on HOP-62, in the assay on HT-29, with IGROV-1, in the assay with MDA-MB-231, in the assay with Malme-3M and in the assay on NCI-H522 was > 100 µM (inactive) throughout. Also, the GI50 in the assay with OVCAR-3, with SN12C, in the assay on SW-620, in the assay on T47D and in the assay with UACC-62 was > 100 µM (inactive) each time.

Take `O=C(Cc1csc(N/N=C2\C(=O)Nc3ccccc32)n1)Nc1ccccc1`: the GI50 was 40.6 µM (inactive) with A498; 21.6 µM (inactive) in the assay with ACHN; 23.3 µM (inactive) in the assay with CAKI-1; 55.1 µM (inactive) with COLO 205; 31.6 µM (inactive) in the assay with HCC 2998; 18.1 µM (inactive) with HOP-62. Moreover, the GI50 was 27 µM (inactive) with HT-29; 11.9 µM (inactive) in the assay with IGROV-1; 28.8 µM (inactive) with MDA-MB-231; 24.2 µM (inactive) with OVCAR-3; 36.6 µM (inactive) in the assay on SN12C; 33 µM (inactive) in the assay on SW-620. Also, the GI50 in the assay on T47D is 28.4 µM (inactive).
